The source of these data is paper PMC6057649, “Development of NanoLuc-PEST expressing Leishmania mexicana as a new drug discovery tool for axenic- and intramacrophage-based assays” (PLoS Neglected Tropical Diseases, 2018).

SMILES strings stand for the structures.

For the test, the system named is NanoLuc-PEST expressing L. mexicana axenic amastigotes. Briefly: microbe, parasite or virus in culture. The format is cell-based. The note with it: for Relative Bioluminescence (%): 72 hours, relative to DMSO only control, n = 4; for EC50: hit compounds from the axenic amastigote screen, S3 Table, read-out: EC50, Axenic Amastigotes.

`CC(C)c1ncc(-c2ccncc2)c(C2CCC(CNC(=O)c3cccnc3)CC2)n1` (stereo not shown) [MMV676442]: the “Relative Bioluminescence (%)” value was determined as 118.75% (2 µM compound) and 113.29% (10 µM compound).

In the case of `O=C(NC1CCCCC1)N1CCN(Cc2ccc3c(c2)OCO3)CC1` [MMV676444], the “Relative Bioluminescence (%)” value was 89.21% (2 µM compound) and 81.76% (10 µM compound).

`CCCn1c(CNc2ccccc2O)nc2ccccc21` [MMV676445]: the “Relative Bioluminescence (%)” value (2 µM compound) is given as 79.21% and the “Relative Bioluminescence (%)” value (10 µM compound) stood at 77.96%.

Take `CCc1nc2ccccc2n1CC(O)COc1cc(C)ccc1Cl` (stereo not shown) [MMV676449]: the “Relative Bioluminescence (%)” value was found to be 92.26% (2 µM compound) and 88.05% (10 µM compound).

Turning to `CCOC(=O)c1cc(-c2csc(Nc3c(C)cc(C)cc3C)n2)on1` [MMV676461], the “Relative Bioluminescence (%)” value reads like this: (2 µM compound) 79.84%; (10 µM compound) 54.88%.

Turning to `NC(CC(=O)c1ccc(Cl)cc1Cl)C(Cl)(Cl)Cl` (stereo not shown) [MMV676468], the “Relative Bioluminescence (%)” value is given as 106.85% (2 µM compound) and 84.33% (10 µM compound).

On to `CCOc1ccc(OCC(=O)Nc2cc(C)cc(C)c2)cc1` [MMV676470], for which the “Relative Bioluminescence (%)” value (2 µM compound) was 87.35% and the “Relative Bioluminescence (%)” value (10 µM compound) stood at 79.72%.

`COc1cccc(OC)c1C(=O)Nc1ccc(Cl)c(-c2nc3ccccc3s2)c1` [MMV676472]: the “Relative Bioluminescence (%)” value reads like this: (2 µM compound) 106.46%; (10 µM compound) 93.04%.

For `COc1ccccc1OCCCCn1c(C2CC2)nc2ccccc21` [MMV676474], the “Relative Bioluminescence (%)” value reads like this: (2 µM compound) 84.28%; (10 µM compound) 88.48%.

For the molecule `Cc1cc(C)cc(COc2ccc3c(C)c(CCC(=O)O)c(=O)oc3c2C)c1` [MMV676476], the concentration giving a half-maximal response (EC50) was found to be 580 nM. In addition, the “Relative Bioluminescence (%)” value (2 µM compound) worked out at 1.36%. Besides, the “Relative Bioluminescence (%)” value (10 µM compound) was -0.27%.

Regarding `O=C(C1CCN(c2nnc(-n3cccc3)s2)CC1)N1CCC(Cc2ccccc2)CC1` [MMV676478], the “Relative Bioluminescence (%)” value is, setting by setting: (2 µM compound) 93.56%; (10 µM compound) 56.18%.

`COC(=O)c1c(NC(=O)c2cc3ccccc3oc2=O)sc2c1CCN(Cc1ccccc1)C2` [MMV676480]: the “Relative Bioluminescence (%)” value by setting is: (2 µM compound) 96.73%; (10 µM compound) 61.83%.

Regarding `O=C(Nc1n[nH]c(=S)s1)c1cc(Br)ccc1Cl` [MMV676492], the “Relative Bioluminescence (%)” value by setting is: (2 µM compound) 60.28%; (10 µM compound) 23.83%.

Consider `O=C(Nc1nnc(-c2ccc(Cl)s2)o1)c1ccc(Cl)s1` [MMV676501], for which the concentration for a half-maximal effect (EC50) turned out to be 300 nM. The “Relative Bioluminescence (%)” value (2 µM compound) was -0.04%. In addition, where the note is “10 µM compound”, the “Relative Bioluminescence (%)” value was -0.69%.

As for `Cc1ccc2oc(-c3cc(NC(=O)Cc4ccccc4)ccc3Cl)nc2c1` [MMV676509], the “Relative Bioluminescence (%)” value by setting is: (2 µM compound) 92.05%; (10 µM compound) 59.65%.

Consider `O=C(Nc1nc(-c2ccccn2)cs1)c1cncn1-c1ccccc1` [MMV676512], for which the “Relative Bioluminescence (%)” value is 15.66% (2 µM compound) and -0.58% (10 µM compound).

For `O=C(c1cc2ccccc2o1)N1CCN(Cc2ccc3c(c2)OCO3)CC1` [MMV676520], the “Relative Bioluminescence (%)” value is, setting by setting: (2 µM compound) 56.86%; (10 µM compound) 68.82%.

On to `Nc1cccnc1Nc1ccc(Cl)cc1` [MMV676524], for which the “Relative Bioluminescence (%)” value runs as follows: (2 µM compound) 60.00%; (10 µM compound) 65.52%.

With `COc1ccc(-c2cc(NC(=O)c3ccc(F)cc3Cl)ccc2OC)cc1` [MMV676526], the “Relative Bioluminescence (%)” value is, setting by setting: (2 µM compound) 103.78%; (10 µM compound) 46.48%.

For `Cc1cccc(NC(=O)c2cc(S(=O)(=O)N(C)c3ccc(F)cc3)ccc2Cl)n1` [MMV676528], the “Relative Bioluminescence (%)” value (2 µM compound) is on record as 77.13% and the “Relative Bioluminescence (%)” value (10 µM compound) worked out at 57.74%.

In the case of `COCC(C)NC(=O)CSc1ncnc2sc(-c3ccccc3)cc12` (stereo not shown) [MMV676536], the “Relative Bioluminescence (%)” value reads like this: (2 µM compound) 84.93%; (10 µM compound) 103.25%.

As for `O=C(NCCc1c[nH]c2ccccc12)c1cc2ccccc2oc1=O` [MMV676539], the “Relative Bioluminescence (%)” value is, setting by setting: (2 µM compound) 54.78%; (10 µM compound) 62.48%.

In the case of `COc1ccc(Nc2ccccc2NC(=O)c2ccc(=O)[nH]c2)cc1` [MMV676554], the “Relative Bioluminescence (%)” value came out at 97.83% (2 µM compound) and 103.74% (10 µM compound).

With `Cc1nnc(NCc2cccc(Cl)c2)c2ccccc12` [MMV676555], the “Relative Bioluminescence (%)” value is, setting by setting: (2 µM compound) 104.08%; (10 µM compound) 90.53%.

As to `CC1=NN(c2nc3ccccc3s2)C(=O)C1Cc1cccc2ccccc12` (stereo not shown) [MMV676558], the EC50 was 470 nM. Besides, the “Relative Bioluminescence (%)” value (2 µM compound) was -0.86%. Further, the “Relative Bioluminescence (%)” value (10 µM compound) is recorded as -0.77%.

Take `COc1ccc(-c2nc(-c3cccc(NC(=O)Cc4ccc(F)cc4)c3)no2)cc1OC` [MMV676571]: the “Relative Bioluminescence (%)” value was 102.29% (2 µM compound) and 85.94% (10 µM compound).

As for `O=C(NC1=NCCS1)c1sc2cc(F)ccc2c1Cl` [MMV676584], the “Relative Bioluminescence (%)” value runs as follows: (2 µM compound) 83.30%; (10 µM compound) 89.36%.

Turning to `Nc1c2c(nc3sc4c(c13)CCCC4)CCCC2` [MMV676588], the “Relative Bioluminescence (%)” value turned out to be 70.58% (2 µM compound) and 69.13% (10 µM compound).

On to `O=C(CCC1CCCCC1)Nc1cccc(-c2nnc(-c3ccco3)o2)c1` [MMV676589], for which the “Relative Bioluminescence (%)” value reads like this: (2 µM compound) 54.08%; (10 µM compound) 15.64%.

In the case of `CCCn1nnc(NC(=O)COc2ccc(C3CCCCC3)cc2)n1` [MMV676597], the “Relative Bioluminescence (%)” value is 85.91% (2 µM compound) and 73.07% (10 µM compound).

For `CC(C)(C)n1nc(Cc2cccc3ccccc23)c2c(N)ncnc21` [MMV676599], the “Relative Bioluminescence (%)” value is, setting by setting: (2 µM compound) 80.19%; (10 µM compound) 31.83%.

`CO[C@@H](C(=O)N1Cc2[nH]nc(NC(=O)c3ccc(N4CCN(C)CC4)cc3)c2C1)c1ccccc1` [MMV676600]: the “Relative Bioluminescence (%)” value by setting is: (2 µM compound) 110.66%; (10 µM compound) 114.36%.

Take `CNC(=O)c1nn(C)c2c1C(C)(C)Cc1cnc(Nc3ccc(N4CCN(C)CC4)cc3)nc1-2` [MMV676602]: the “Relative Bioluminescence (%)” value reads like this: (2 µM compound) 91.95%; (10 µM compound) 77.62%.

For `C[C@H]1COC2(CCN(c3nc(=O)c4cc(C(F)(F)F)cc([N+](=O)[O-])c4s3)CC2)O1` [MMV676603], the “Relative Bioluminescence (%)” value stood at 83.14% (2 µM compound) and 75.26% (10 µM compound).

Turning to `Cc1ncc(-c2ccnc(Nc3ccc(S(C)(=O)=O)cc3)n2)n1C(C)C` [MMV676604], the “Relative Bioluminescence (%)” value (2 µM compound) was found to be 81.35% and the “Relative Bioluminescence (%)” value (10 µM compound) is on record as 33.57%.

On to `CC1(O)CC(c2nc(-c3ccc4ccc(-c5ccccc5)nc4c3)c3c(N)nccn23)C1` (stereo not shown) [MMV676605], for which the “Relative Bioluminescence (%)” value by setting is: (2 µM compound) 81.06%; (10 µM compound) 84.63%.

Consider `O=C(c1ccc(NCCO)cc1)C1C[C@H]1c1ccc(Cl)cc1` (stereo partly shown) [MMV676877], for which the “Relative Bioluminescence (%)” value runs as follows: (2 µM compound) 100.77%; (10 µM compound) 116.30%.

As to `CCn1cnc2c(Nc3cc(F)cc(F)c3)nc(C#N)nc21` [MMV676881], the “Relative Bioluminescence (%)” value (2 µM compound) came out at 76.51% and the “Relative Bioluminescence (%)” value (10 µM compound) came out at 54.00%.
